Experimental data as given in ChEMBL document CHEMBL5113477, “Membrane acting Povarov-Doebner derived compounds potently disperse preformed multidrug resistant Gram-positive bacterial biofilms” (Eur J Med Chem, 2022).
The source made the active and inactive calls.

Legend:
Enterococcus faecium [1] = assay: Antibacterial activity against vancomycin-resistant Enterococcus faecium ATCC 700221 assessed as reduction in visible bacterial growth incubated for 18 to 20 hrs by CLSI based broth microdilution analysis; type: functional; details: time 18-20 hrs
Staphylococcus aureus [2] = assay: Antibacterial activity against methicillin-resistant Staphylococcus aureus ATCC 33592 assessed as reduction in visible bacterial growth incubated for 18 to 20 hrs by CLSI based broth microdilution analysis; type: functional; details: time 18-20 hrs
Enterococcus faecium [3] = assay: (§1) Antibiofilm activity against vancomycin-resistant Enterococcus faecium ATCC 700221 in TSB broth assessed as dispersal of glucose-induced biofilm preincubated with glucose for 48 hrs followed by compound addition and measured after 24 hrs by crystal violet staining based analysis; type: functional
Staphylococcus aureus [4] = assay: Antibacterial activity against Staphylococcus aureus ATCC 25923 assessed as reduction in visible bacterial growth incubated for 18 to 20 hrs by CLSI based broth microdilution analysis; type: functional; details: time 18-20 hrs
Listeria monocytogenes = assay: Antibacterial activity against Listeria monocytogenes ATCC 19115 assessed as reduction in visible bacterial growth incubated for 18 to 20 hrs by CLSI based broth microdilution analysis; type: functional; details: time 18-20 hrs
Enterococcus faecalis [5] = assay: Antibacterial activity against vancomycin-resistant Enterococcus faecalis ATCC 51575 assessed as reduction in visible bacterial growth incubated for 18 to 20 hrs by CLSI based broth microdilution analysis; type: functional; details: time 18-20 hrs
Staphylococcus aureus [6] = assay: Antibacterial activity against methicillin-resistant Staphylococcus aureus USA 300 (ARLG 1567) assessed as reduction in visible bacterial growth incubated for 18 to 20 hrs by CLSI based broth microdilution analysis; type: functional; details: time 18-20 hrs
Staphylococcus aureus [7] = assay: Antibacterial activity against methicillin-resistant Staphylococcus aureus USA 300 (ARLG 1568) assessed as reduction in visible bacterial growth incubated for 18 to 20 hrs by CLSI based broth microdilution analysis; type: functional; details: time 18-20 hrs
Staphylococcus aureus [8] = assay: Antibacterial activity against methicillin-resistant Staphylococcus aureus USA 300 (ARLG 1569) assessed as reduction in visible bacterial growth incubated for 18 to 20 hrs by CLSI based broth microdilution analysis; type: functional; details: time 18-20 hrs
Staphylococcus aureus [9] = assay: Antibacterial activity against methicillin-resistant Staphylococcus aureus USA 300 (ARLG 1649) assessed as reduction in visible bacterial growth incubated for 18 to 20 hrs by CLSI based broth microdilution analysis; type: functional; details: time 18-20 hrs
Staphylococcus aureus [10] = assay: Antibacterial activity against methicillin-resistant Staphylococcus aureus USA 300 (ARLG 1665) assessed as reduction in visible bacterial growth incubated for 18 to 20 hrs by CLSI based broth microdilution analysis; type: functional; details: time 18-20 hrs
Staphylococcus aureus [11] = assay: Bactericidal activity against persister methicillin-resistant Staphylococcus aureus ATCC 33592 at 1 times MIC incubated for 8 hrs by time kill assay; type: functional
Staphylococcus aureus [12] = assay: Inhibition of biofilm formation in methicillin-resistant Staphylococcus aureus ATCC 33592 in TSB broth at 0.0078 to 4 ug/ml incubated for 48 hrs in presence of glucose by crystal violet staining based analysis; type: functional, organism-based; details: dose 0.0078-4 µg/ml
Enterococcus faecalis [13] = assay: Inhibition of biofilm formation in vancomycin-resistant Enterococcus faecalis ATCC 51575 in TSB broth at 0.0078 to 4 ug/ml incubated for 48 hrs in presence of glucose by crystal violet staining based analysis; type: functional, organism-based; details: dose 0.0078-4 µg/ml
Enterococcus faecium [14] = assay: Antibiofilm activity against vancomycin-resistant Enterococcus faecium ATCC 700221 in TSB broth assessed as dispersal of glucose-induced biofilm at 8 to 16 ug/ml preincubated with glucose for 48 hrs followed by compound addition and measured after 24 hrs by crystal violet staining based analysis; type: functional; details: dose 8-16 µg/ml, at 8 to 16 µg/mL
Staphylococcus aureus [15] = assay: Antibiofilm activity against methicillin-resistant Staphylococcus aureus USA 300 in TSB broth assessed as dispersal of glucose-induced biofilm preincubated with glucose for 48 hrs followed by compound addition and measured after 24 hrs by crystal violet staining based analysis; type: functional
Staphylococcus aureus [16] = assay: (§2) Synergistic antibiofilm activity against methicillin-resistant Staphylococcus aureus USA 300 in TSB broth assessed as dispersal of glucose-induced biofilm by measuring fractional inhibitory concentration index preincubated with glucose for 48 hrs followed by compound addition and further incubated for 24 hrs in presence of Bithionol by crystal violet staining based checkerboard assay; type: functional
Enterococcus faecalis [17] = assay: as §2, with “vancomycin-resistant Enterococcus faecalis ATCC 51575” for “methicillin-resistant Staphylococcus aureus USA 300”, “Nitroxoline” for “Bithionol”; type: functional
Enterococcus faecium [18] = assay: as §1, with “Synergistic antibiofilm” for “Antibiofilm”, “biofilm […]” for “biofilm”, “checkerboard assay” for “analysis”; type: functional
Enterococcus faecium [19] = assay: as §2, with “vancomycin-resistant Enterococcus faecium ATCC 700221” for “methicillin-resistant Staphylococcus aureus USA 300”, “Nitroxoline” for “Bithionol”; type: functional
Enterococcus faecium [20] = assay: as §2, with “vancomycin-resistant Enterococcus faecium ATCC 700221” for “methicillin-resistant Staphylococcus aureus USA 300”; type: functional
Staphylococcus aureus [21] = assay: as §2, with “at 1 ug/ml” for “by measuring fractional inhibitory concentration index”, “Nitroxoline” for “Bithionol”, “based” for “based checkerboard”; type: functional; details: dose 1 µg/ml
Staphylococcus aureus [22] = assay: as §2, with “at 4 ug/ml” for “by measuring fractional inhibitory concentration index”, “based” for “based checkerboard”; type: functional; details: dose 4 µg/ml
Staphylococcus aureus [23] = assay: (§3) Synergistic antibiofilm activity against methicillin-resistant Staphylococcus aureus USA 300 in TSB broth assessed as dispersal of glucose-induced biofilm at 1 ug/ml preincubated with glucose for 48 hrs followed by compound addition and further incubated for 24 hrs in presence of Nitroxoline by SEM analysis; type: functional, organism-based; details: dose 1.0 µg/ml
Staphylococcus aureus [24] = assay: as §3, with “2” for “1”, “0.5 ug/ml Bithionol and AgNO3” for “Nitroxoline”, “crystal violet staining based” for “SEM”; type: functional; details: dose 2 µg/ml
Enterococcus faecium [25] = assay: (§4) Synergistic antibiofilm activity against vancomycin-resistant Enterococcus faecium ATCC 700221 in TSB broth assessed as dispersal of glucose-induced biofilm at 1 ug/ml preincubated with glucose for 48 hrs followed by compound addition and further incubated for 24 hrs in presence of 1 ug/ml Bithionol and AgNO3 by crystal violet staining based analysis; type: functional; details: dose 1 µg/ml
Enterococcus faecium [26] = assay: as §4, with “at 2” for “at 1”, “of 0.5” for “of 1”; type: functional; details: dose 2 µg/ml
Cell membrane [27] = assay: Induction of membrane depolarization in Staphylococcus aureus ATCC 25923 at 2 ug/ml incubated for 1 hr by DiOC23 dye based flow cytometry analysis; type: subcellular; details: dose 2.0 µg/ml
Cell membrane [28] = assay: Induction of membrane permeabilization in Staphylococcus aureus ATCC 25923 measured every 3 mins for 180 mins by sytox green dye based flow cytometry analysis; type: subcellular; details: dose 0.5-4 µg/ml, DDE = dose-dependent effect
Staphylococcus aureus [29] = assay: Inhibition of cell wall synthesis in Staphylococcus aureus ATCC 25923 at 0.25 to 8 ug/ml by [glucosamine-6-3H]-N-acetyl-D-glucosamine incorporation assay; type: functional, organism-based; details: dose 0.25-8 µg/ml
Staphylococcus aureus [30] = assay: Inhibition of DNA synthesis in Staphylococcus aureus ATCC 25923 at 0.25 to 8 ug/ml by [methyl]-thymidine incorporation assay; type: functional, organism-based; details: dose 0.25-8 µg/ml

Oc1ccc([C@@H]2Nc3ccc(S(F)(F)(F)(F)F)cc3[C@H]3[C@@H]4CC[C@@H](C4)[C@H]32)cc1
>70%: Activity (Enterococcus faecium [25]) | Activity (Enterococcus faecium [26])
0.38: fractional inhibitory concentration index (FICI) (Enterococcus faecalis [17])
1 µg/mL: MBC (Staphylococcus aureus [2]) | MIC (Listeria monocytogenes) | MIC (Staphylococcus aureus [8]) | MIC (Staphylococcus aureus [9]) | MIC (Staphylococcus aureus [10])
2 µg/mL: MBC (Enterococcus faecium [1]) | MIC (Enterococcus faecium [1]) | MIC (Staphylococcus aureus [2]) | MBC (Staphylococcus aureus [4]) | MIC (Staphylococcus aureus [4]) | MBC (Enterococcus faecalis [5]) | MIC (Enterococcus faecalis [5]) | MBC (Staphylococcus aureus [6]) | MIC (Staphylococcus aureus [6]) | MBC (Staphylococcus aureus [7]) | MIC (Staphylococcus aureus [7]) | MBC (Staphylococcus aureus [8]) | MBC (Staphylococcus aureus [9]) | MBC (Staphylococcus aureus [10]) | MBEC (Enterococcus faecium [18])
0.25: fractional inhibitory concentration index (FICI) (Staphylococcus aureus [16])
70%: Activity (Enterococcus faecium [14])
>80%: Activity (Staphylococcus aureus [21]) | Activity (Staphylococcus aureus [22]) | Activity (Staphylococcus aureus [24])
0.28: fractional inhibitory concentration index (FICI) (Enterococcus faecium [20])
100%: Activity (Staphylococcus aureus [11])
32 µg/mL: MBEC (Enterococcus faecium [3]) | MBEC (Staphylococcus aureus [15])
active: inhibition (Staphylococcus aureus [12]) | inhibition (Enterococcus faecalis [13]) | Activity (Staphylococcus aureus [23]) | Activity (Cell membrane [27]) | Activity (Cell membrane [28]) Dde | inhibition (Staphylococcus aureus [29]) | inhibition (Staphylococcus aureus [30])
0.16: fractional inhibitory concentration index (FICI) (Enterococcus faecium [19])
